Patent EP0719281B1, “MULTIPLE BRANCH PEPTIDE CONSTRUCTIONS FOR USE AGAINST HIV” (priority 1993, dated 1995)
“Also recorded” adds a separate entry of the source. Bridge positions count the residues as written; N and C are the ends. Square brackets hold non-standard residues; d marks the D form. Ends that are not written are not given here. I, II: the chains in the order shown. βAla = NCCC(=O)O

What was measured:
[1] = test system: RT-deficient HIV-I(IIIB) isolate; experiment: Inhibition of HIV-I induced cell fusion (8E5 cells co-cultivated with PHA stimulated human PBLs); format: cell-based; conditions: for Inhibition of HIV-I induced cell fusion (number of syncytia): after 24 hours
From the text: 50 x 10^3 8E5 cells chronically infected with a RT-deficient HIV-I(IIIB) isolate, were co-cultivated with 150 x 10^3 phytohemagglutinin (PHA) stimulated human peripheral blood lymphocytes (PBLs) in the presence of the indicated peptide in 96-well plates. The MBPCs used are described by the peptides attached, and the number thereof, to a core lysine matrix, which is designated MLC. All amino acids used for this experiment were in dextro form.

[2] = test system: 8E5 cells; experiment: Toxicity in the cell fusion test (MTT assay or trypan blue exclusion); conditions: Concentration (M) 5x10^-5
Procedure: Toxicity was evaluated by either MTT assay (described below) or trypan blue exclusion technique.
(§1) An MTT assay, a colorimetric cell viability assay using 3-[4,5-Dimethylthiazol-2-yl] 2,5-diphenyltetrazolium bromide, was used to assess the effect of MBPCs on cell viability. CEM or C8166 cells (5x10^4) were cultured continuously (15 days) in the presence of various concentrations of MBPCs in the wells of 96-well microtiter plates in 200 µl final volume of RPMI 1640 medium supplemented with 5% fetal calf serum, 1% glutamine, 1% streptomycin-penicillin (available from Gibco of Irvine, Scotland) in a humidified atmosphere with 5% CO2. Every 3 to 4 days, an MTT assay was performed on 100 µl of cells suspension and MBPC were added to cell culture and the volume completed to 200 µl.

[3] = test system: CEM or C8166 cells; conditions: concentrations of 10^-7 to 10^-4M; 15 days
Procedure: as §1

[4] = test system: HIV-1(89.6); experiment: Infection of and syncytia formation in human primary macrophages; format: cell-based; conditions: MBPC 5x10^-5M; 10,000 TCID50; 4 days post-infection
From the text: Mononuclear cells were isolated from leukophoresis units enriched for monocytes by Ficoll-Hypaque density separation. Macrophages were purified by adherence to plastic in RPMI 1640 supplemented with 10% fetal calf serum and 5% human AB serum. […] After thorough washing, the cells were fed again with medium and analyzed for HIV-1 p24^gag production and syncytia formation 4 days post-infection.

**Q.** How did the “syncytia formation / cell fusion (in words)” value [1] turn out when [GPGR]8-MLC was run?
**A.** did not inhibit cell fusion

**Q.** And the “Inhibition of HIV-I induced cell fusion (number of syncytia)” value (“Inhibition of HIV-I induced cell fusion” below) ([1]; Concentration (M) 5x10^-5)?
**A.** +++

**Q.** What about the “Inhibition of HIV-I induced cell fusion” value ([1]; Concentration (M) 5 x10^-6) of the same compound?
**A.** +++

**Q.** And the “Inhibition of HIV-I induced cell fusion” value ([1]; Concentration (M) 5x10^-7)?
**A.** +++

**Q.** How did the Toxicity [2] turn out when `C[C@H](NC(=O)[C@@H](CCCNC(=N)N)NC(=O)CNC(=O)[C@@H]1CCCN1C(=O)CN)C(=O)N[C@@H](Cc1ccccc1)C(=O)NCCCC[C@H](NC(=O)[C@H](Cc1ccccc1)NC(=O)[C@H](C)NC(=O)[C@@H](CCCNC(=N)N)NC(=O)CNC(=O)[C@@H]1CCCN1C(=O)CN)C(=O)NCCCC[C@H](NC(=O)[C@H](CCCCNC(=O)[C@H](Cc1ccccc1)NC(=O)[C@H](C)NC(=O)[C@@H](CCCNC(=N)N)NC(=O)CNC(=O)[C@@H]1CCCN1C(=O)CN)NC(=O)[C@H](Cc1ccccc1)NC(=O)[C@H](C)NC(=O)[C@@H](CCCNC(=N)N)NC(=O)CNC(=O)[C@@H]1CCCN1C(=O)CN)C(=O)NCCCC[C@H](NC(=O)[C@H](CCCCNC(=O)[C@H](CCCCNC(=O)[C@H](Cc1ccccc1)NC(=O)[C@H](C)NC(=O)[C@@H](CCCNC(=N)N)NC(=O)CNC(=O)[C@@H]1CCCN1C(=O)CN)NC(=O)[C@H](Cc1ccccc1)NC(=O)[C@H](C)NC(=O)[C@@H](CCCNC(=N)N)NC(=O)CNC(=O)[C@@H]1CCCN1C(=O)CN)NC(=O)[C@H](CCCCNC(=O)[C@H](Cc1ccccc1)NC(=O)[C@H](C)NC(=O)[C@@H](CCCNC(=N)N)NC(=O)CNC(=O)[C@@H]1CCCN1C(=O)CN)NC(=O)[C@H](Cc1ccccc1)NC(=O)[C@H](C)NC(=O)[C@@H](CCCNC(=N)N)NC(=O)CNC(=O)[C@@H]1CCCN1C(=O)CN)C(=O)NCCC(=O)O` [[GPG(R)DAF]8-MLC] was run?
**A.** Toxic

**Q.** How did the “toxicity to cells (MTT assay)” value [3] turn out when `C[C@H](NC(=O)[C@H](CCCNC(=N)N)NC(=O)CNC(=O)[C@@H]1CCCN1C(=O)CN)C(=O)N[C@@H](Cc1ccccc1)C(=O)NCCCC[C@H](NC(=O)[C@H](Cc1ccccc1)NC(=O)[C@H](C)NC(=O)[C@H](CCCNC(=N)N)NC(=O)CNC(=O)[C@@H]1CCCN1C(=O)CN)C(=O)NCCCC[C@H](NC(=O)[C@H](CCCCNC(=O)[C@H](Cc1ccccc1)NC(=O)[C@H](C)NC(=O)[C@H](CCCNC(=N)N)NC(=O)CNC(=O)[C@@H]1CCCN1C(=O)CN)NC(=O)[C@H](Cc1ccccc1)NC(=O)[C@H](C)NC(=O)[C@H](CCCNC(=N)N)NC(=O)CNC(=O)[C@@H]1CCCN1C(=O)CN)C(=O)NCCCC[C@H](NC(=O)[C@H](CCCCNC(=O)[C@H](CCCCNC(=O)[C@H](Cc1ccccc1)NC(=O)[C@H](C)NC(=O)[C@H](CCCNC(=N)N)NC(=O)CNC(=O)[C@@H]1CCCN1C(=O)CN)NC(=O)[C@H](Cc1ccccc1)NC(=O)[C@H](C)NC(=O)[C@H](CCCNC(=N)N)NC(=O)CNC(=O)[C@@H]1CCCN1C(=O)CN)NC(=O)[C@H](CCCCNC(=O)[C@H](Cc1ccccc1)NC(=O)[C@H](C)NC(=O)[C@H](CCCNC(=N)N)NC(=O)CNC(=O)[C@@H]1CCCN1C(=O)CN)NC(=O)[C@H](Cc1ccccc1)NC(=O)[C@H](C)NC(=O)[C@H](CCCNC(=N)N)NC(=O)CNC(=O)[C@@H]1CCCN1C(=O)CN)C(=O)NCCC(=O)O` [MBPC.3, (GPGRAF)8-(K)4-(K)2-K-βA-OH] was run?
**A.** not toxic

**Q.** [GPGRAF]8-MLCD was tested. Which “Inhibition of HIV-I induced cell fusion” value ([1]; Concentration (M) 5x10^-5) did it give?
**A.** +++

**Q.** What about the “Inhibition of HIV-I induced cell fusion” value ([1]; Concentration (M) 5 x10^-6) of the same compound?
**A.** +++

**Q.** And the “Inhibition of HIV-I induced cell fusion” value ([1]; Concentration (M) 5x10^-7)?
**A.** +++

**Q.** What about the “infection of macrophages (in words)” value [4] of the same compound?
**A.** significantly less active than [GPGRAF]8-MLC

**Q.** For “I: RKSIHIGPGRAFYTKK[βAla] / II: RKSIHIGPGRAFYTK / III: RKSIHIGPGRAFYT / IV: RKSIHIGPGRAFYT (amide I:15-IV:C, I:16-II:C, II:15-III:C) [MBPC.5]”, which Toxicity ([2]; listed as [RKSIHIGPGRAFYT]4-MLC) is on record?
**A.** some toxicity; also recorded: Toxic

**Q.** Which results are given for [RKSIHKGPGRAFYT]4-MLC?
**A.** Inhibition of HIV-I induced cell fusion (number of syncytia) ([1]; Concentration (M) 5 x10^-6): - (- indicates the total absence of syncytia in the well); Inhibition of HIV-I induced cell fusion (number of syncytia) ([1]; Concentration (M) 5x10^-7): +++; Toxicity [2]: Toxic

**Q.** [GPGRA]8-MLC was tested. Which “syncytia formation / cell fusion (in words)” value [1] did it give?
**A.** did not inhibit cell fusion

**Q.** And the “Inhibition of HIV-I induced cell fusion” value ([1]; Concentration (M) 5x10^-5)?
**A.** +++

**Q.** What about the “Inhibition of HIV-I induced cell fusion” value ([1]; Concentration (M) 5 x10^-6) of the same compound?
**A.** +++

**Q.** What about the “Inhibition of HIV-I induced cell fusion” value ([1]; Concentration (M) 5x10^-7) of the same compound?
**A.** +++

**Q.** Which “Inhibition of HIV-I induced cell fusion” value ([1]; Concentration (M) 5 x10^-6) does the source give for [RKSIHTGPGRAFYT]4-MLC here?
**A.** - (- indicates the total absence of syncytia in the well)

**Q.** And the “Inhibition of HIV-I induced cell fusion” value ([1]; Concentration (M) 5x10^-7)?
**A.** +++

**Q.** And the Toxicity [2]?
**A.** Toxic

**Q.** How did the “syncytia formation / cell fusion (in words)” value [1] turn out when [IGPGRAF]8-MLC was run?
**A.** significant loss of activity

**Q.** What about the “Inhibition of HIV-I induced cell fusion” value ([1]; Concentration (M) 5x10^-5) of the same compound?
**A.** - (- indicates the total absence of syncytia in the well)

**Q.** And the “Inhibition of HIV-I induced cell fusion” value ([1]; Concentration (M) 5 x10^-6)?
**A.** ±

**Q.** What about the “Inhibition of HIV-I induced cell fusion” value ([1]; Concentration (M) 5x10^-7) of the same compound?
**A.** +++

**Q.** Which “syncytia formation / cell fusion (in words)” value [1] does the source give for [Ac-GPGRAF]8-MLC here?
**A.** significant loss of activity

**Q.** What about the “Inhibition of HIV-I induced cell fusion” value ([1]; Concentration (M) 5x10^-5) of the same compound?
**A.** - (- indicates the total absence of syncytia in the well)

**Q.** What about the “Inhibition of HIV-I induced cell fusion” value ([1]; Concentration (M) 5 x10^-6) of the same compound?
**A.** +++

**Q.** What about the “Inhibition of HIV-I induced cell fusion” value ([1]; Concentration (M) 5x10^-7) of the same compound?
**A.** +++
